Patent US7371555B2, “Polypeptides having α-H-α-amino acid amide racemase activity and nucleic acids encoding the same” (DSM IP Assets B.V., priority 2002, dated 2008)

Legend:
[1] = tested on: CFE from E. coli DH10B/pOa(1)PLV49B10 combined with the L-aminopeptidase from Pseudomonas putida ATCC 12633; assay: Racemase activity test with DL-2-amino-5-[1,3]dioxolan-2-yl-pentanoic acid amide, CFE combined with L-aminopeptidase (Example 12); assay type: biochemical, Ochrobactrum anthropi IA; Pseudomonas putida ATCC 12633
Method: (§1) A reaction mixture of 10 ml (total volume including enzyme preparations) was prepared containing 50 mM HEPES-NaOH, pH 8.0, 20 μM pyridoxal-5-phosphate, 0.4 mg/ml BSA, 1 mM dithiothreitol, and 75 mM of DL-2-aminobutyric acid amide. Reaction was started by the addition of 0.4 ml of the thawed CFE of E. coli DH10B/pOa(1)PLV49B10 and 0.17 ml of a solution containing L-aminopeptidase from P. putida ATCC 12633. The reaction mixture was incubated at 37° C. for 18 h. At certain time intervals samples of 1 ml were taken and transferred to vials containing 1 ml of MeOH to stop the reaction. Analysis of these samples to determine the concentrations L- and D-2-aminobutyric acid and L- and D-2-aminobutyric acid amide was done by HPLC according to the protocol of Example 11.
In a very similar set-up, the combined activity of the α-H-α-amino acid amide racemase from O. anthropi IA and the L-aminopeptidase from P. putida ATCC 12633 was determined towards the more complex substrate DL-2-amino-5-[1,3]dioxolan-2-yl-pentanoic acid amide. The molecular structure of this amide can be found in the substrate table in Example 8. In this experiment 1 ml of the thawed CFE from E. coli DH10B/pOa(1)PLV49B10 was used together with 1 ml of a solution containing L-aminopeptidase from P. putida ATCC 12633. Reaction proceeded for 120 hours. Analysis of these samples to determine the concentrations L- and D-2-amino-5-[1,3]dioxolan-2-yl-pentanoic acid and L- and D-2-amino-5-[1,3]dioxolan-2-yl-pentanoic acid amide was done by HPLC according to the following protocol. • column: Crownether Cr(−) (150 mm×4.0 mm ID) • eluent: Perchloric acid in water, pH=1.0 • flow: 1.2 ml/min. • column temp.: 18° C. • inj. volume: 20 μl • detection: fluorescence detection after post-column reaction with o-phthalaldehyde and 2-mercaptoethanol in 0.4 M borate buffer. (wavelength ex=338 nm and em>420 nm)

[2] = tested on: CFE from E. coli DH10B/pOa(1)PLV49B10 combined with the L-aminopeptidase from Pseudomonas putida ATCC 12633; assay: Racemase activity test with DL-2-aminobutyric acid amide, CFE combined with L-aminopeptidase (Example 11); assay type: biochemical, Ochrobactrum anthropi IA; Pseudomonas putida ATCC 12633
Method: In this experiment, the E. coli DH10B/pOa(1)PLV49B10 CFE from Example 11 was used. It was combined with a preparation containing the L-aminopeptidase from P. putida ATCC 12633. This is the same L-enantioselective enzyme as was used as L-aminopeptidase help solution in the screening of the O. anthropi IA and A. nicotianae NCIMB 41126 gene libraries (Examples 3 and 3A).
as §1

[3] = tested on: CFE from E. coli DH10B/pOa(1)PLV49B10 containing the α-H-α-amino acid amide racemase from O. anthropi IA; assay: Racemase activity test with DL-2-aminobutyric acid amide and CFE from E. coli DH10B/pOa(1)PLV49B10 (Example 10); assay type: biochemical, Ochrobactrum anthropi IA; settings: Strain A; for Conversion: conversion to the L-acid
Method: Also in this case, E. coli TOP10/pBAD/Myc-HisC was treated in exactly the same way to serve as negative control.
To determine the activity of the CFE from E. coli DH10B/pOa(1)PLV49B10 and E. coli TOP10/pBAD/Myc-HisC, reaction mixtures of 10 ml each were prepared containing 50 mM HEPES-NaOH, pH 8.0, 20 μM pyridoxal-5-phosphate, 0.4 mg/ml BSA, 1 mM dithiothreitol, and 75 mM of DL-2-aminobutyric acid amide. Reactions were started by the addition of 1 ml of the thawed CFE of E. coli DH10B/pOa(1)PLV49B10 or E. coli TOP10/pBAD/Myc-HisC (blank) and were incubated at 37° C. for 21.5 h. At regular time intervals samples of 1 ml were taken and transferred to vials containing 1 ml of MeOH to stop the reaction. Analysis of these samples to determine the concentrations L- and D-2-aminobutyric acid and L- and D-2-aminobutyric acid amide was done by HPLC according to the following protocol. • column: Sumichiral OA5000 from Sumika (150×4.6 mm I.D., 5μ)+guard column • eluent: 4 mM CuSO4 in water • flow: 1 ml/min. • column temp.: 10° C. • inj. volume: 6 μl • detection: fluorescence detection after post-column reaction with o-phthalaldehyde and 2-mercaptoethanol in 0.4 M borate buffer with addition of EDTA (wavelength ex=338 nm and em>420 nm)

## NC(=O)C(N)CCCC1OCCO1 (racemic) [DL-2-amino-5-[1,3]dioxolan-2-yl-pentanoic acid amide]
[1]; incubation time 0 h
  Conversion: 5.6%
  D-Abu: 0.0 mM
  D-Abu amide: 36.6 mM
  L-Abu: 4.3 mM
  L-Abu amide: 36.5 mM
[1]; incubation time 3.6 h
  Conversion: 49.5%
  D-Abu: 0.0 mM
  D-Abu amide: 35.7 mM
  L-Abu: 37.6 mM
  L-Abu amide: 2.7 mM
[1]; incubation time 22.1 h
  Conversion: 56.6%
  D-Abu: 0.1 mM
  D-Abu amide: 29.9 mM
  L-Abu: 40.3 mM
  L-Abu amide: 1.0 mM
[1]; incubation time 53.2 h
  Conversion: 61.1%
  D-Abu: 0.1 mM
  D-Abu amide: 27.4 mM
  L-Abu: 43.5 mM
  L-Abu amide: 0.1 mM
[1]; incubation time 120.2 h
  D-Abu: 0.4 mM
  D-Abu amide: 23.7 mM
  L-Abu: 46.0 mM
  L-Abu amide: 0.1 mM

## CCC(N)C(N)=O (racemic) [DL-2-aminobutyric acid (Abu) amide, DL-2-aminobutyric acid amide]
[2]; incubation time 0 h
  Conversion: 0.7%
  D-Abu: 0.0 mM
  D-Abu amide: 36.2 mM
  L-Abu: 0.5 mM
  L-Abu amide: 34.1 mM
[2]; incubation time 0.5 h
  Conversion: 17.1%
  D-Abu: 0.0 mM
  D-Abu amide: 34.6 mM
  L-Abu: 11.7 mM
  L-Abu amide: 22.2 mM
[2]; incubation time 1.0 h
  Conversion: 42.4%
  D-Abu: 0.1 mM
  D-Abu amide: 36.4 mM
  L-Abu: 32.2 mM
  L-Abu amide: 7.3 mM
[2]; incubation time 1.5 h
  Conversion: 51.9%
  D-Abu: 0.0 mM
  D-Abu amide: 33.0 mM
  L-Abu: 38.5 mM
  L-Abu amide: 2.7 mM
[2]; incubation time 2.0 h
  Conversion: 56.7%
  D-Abu: 0.0 mM
  D-Abu amide: 30.4 mM
  L-Abu: 41.9 mM
  L-Abu amide: 1.7 mM
[2]; incubation time 18 h
  Conversion: 97.3%
  D-Abu: 1.6 mM
  D-Abu amide: 0.4 mM
  L-Abu: 70.8 mM
  L-Abu amide: 0.0 mM
[3]; incubation time 0 h
  D-Abu: 0.0 mM
  D-Abu amide: 42.3 mM
  L-Abu: 1.4 mM
  L-Abu amide: 40.5 mM
  Conversion: 1.6%
[3]; incubation time 0.75 h
  D-Abu: 0.0 mM
  D-Abu amide: 39.6 mM
  L-Abu: 12.3 mM
  L-Abu amide: 29.3 mM
  Conversion: 15.2%
[3]; incubation time 2 h
  D-Abu: 0.0 mM
  D-Abu amide: 34.7 mM
  L-Abu: 29.1 mM
  L-Abu amide: 17.8 mM
  Conversion: 35.7%
[3]; incubation time 4.65 h
  D-Abu: 0.1 mM
  D-Abu amide: 20.8 mM
  L-Abu: 52.3 mM
  L-Abu amide: 11.5 mM
  Conversion: 61.8%
[3]; incubation time 8.25 h
  D-Abu: 0.5 mM
  D-Abu amide: 12.4 mM
  L-Abu: 64.9 mM
  L-Abu amide: 8.6 mM
  Conversion: 75.1%
[3]; incubation time 21.5 h
  D-Abu: 1.4 mM
  D-Abu amide: 6.7 mM
  L-Abu: 71.7 mM
  L-Abu amide: 5.8 mM
  Conversion: 83.9%
